In paper PMC12280724 (Frontiers in Pharmacology, 2025):

Key:
[1] = In vivo biodistribution of [^99mTc]Tc-carvedilol in healthy Swiss albino mice; conditions: for [^99mTc]Tc-carvedilol percentages of injected dose per Gram organ: i.v. tail vein
Source text: For biodistribution and receptor occupancy studies, 24 healthy adult Swiss albino mice (12 males and 12 females, aged 10–12 weeks, weighing 25–30 g) were obtained from the Egyptian National Research Center. Mice outside the 25–30 g weight range were excluded to ensure consistency in the biodistribution outcomes. Prior to the study, animals were housed in groups of four with ad libitum access to food and water and underwent a 2-week acclimatization period. After this adaptation phase, the mice were randomly assigned to the study groups using the lot-drawing method.
Given ^99mTc’s physical half-life of approximately 6 h, shorter imaging and sampling intervals are generally preferred to maximize radioactive signal fidelity and minimize decay-related variability. At 24 h post-injection, the residual ^99mTc activity could fall below quantifiable thresholds, potentially compromising the precision of biodistribution data. To prevent this, all data collection was restricted to early post-injection intervals—specifically […]—when radioactivity levels remain within optimal detection ranges for gamma counting. By omitting the 24 h time point altogether, the study design ensured that the radiotracer signal would be robust enough to yield statistically reliable biodistribution profiles without being confounded by the isotope’s exponential decay. Additionally, prior pilot studies were conducted to empirically determine the time window during which the radiochemical integrity and quantification signal-to-noise ratio remained analytically valid. These informed the exclusion of late-phase sampling and reinforced confidence in the reliability of kinetic data collected within the defined 6 h observation window. Therefore, six mice were euthanized at each selected time point via standardized cervical dislocation performed by trained personnel in accordance with institutional animal care guidelines. The procedure followed the AVMA Guidelines for the Euthanasia of Animals ([Kirkwood, 2013]), ensuring it was rapid, humane, and reproducible. To ensure procedural consistency, all cervical dislocations were performed by the same experienced researcher, following pre-established protocols that involved correct animal positioning, anatomical landmark identification, and verification of death through cessation of heartbeat and respiration. Immediately postmortem, body weight was recorded, and blood was collected via cardiac puncture.
Organ harvesting included the collection of the heart, liver, lungs, kidneys, spleen, stomach, intestines, muscle (right leg), bone, and brain. Following dissection, tissues were gently rinsed with isotonic saline to remove residual blood, promptly weighed, kept at low temperatures, and immediately subjected to gamma counting to preserve radiochemical integrity and avoid post-collection decay artifacts. No storage or freezing was used to prevent degradation or leakage of [^99mTc]Tc-carvedilol. Sample processing occurred in a shielded, on-site laboratory adjacent to the dissection area, ensuring minimal delay—typically less than 2 to 3 minutes—between collection and measurement.
To ensure methodological rigor and reproducibility, both experimental and computational components of the study were supported by a structured statistical framework. A total of 24 healthy albino mice (12 males, 12 females), aged 10–12 weeks and weighing 25 ± 3 g, were selected based on uniform health status, age, and weight to minimize inter-animal variability. Animals were maintained under controlled laboratory conditions (12-h light/dark cycle, standardized humidity, and temperature) with unrestricted access to food and water. For biodistribution analysis, animals were randomly assigned to four experimental groups, each consisting of six mice, each representing a distinct post-injection time point (15, 30, 60, and 120 min). […]

[2] = In vitro stability in human serum at 37 °C; format: in vitro ADME; conditions: at 24 h
Procedure: Aliquots (0.2 mL) were withdrawn at predefined intervals and analyzed using a paper chromatographic technique ([Rathmann et al., 2019]). Chromatographic separation was carried out using a Shimadzu system ([Shimadzu Corporation]) (Genzo Shimadzu Sr., Kyoto, Japan), comprising LC-9A pumps, a Rheodyne injector (Model 7125), and an ultraviolet spectrophotometer detector (SPD-6A, Shimadzu). The mobile phase consisted of acetonitrile and water (65:35) containing 0.1% trifluoroacetic acid, delivered at a flow rate of 1.0 mL/min. […] Separated fractions were collected for up to 12 min, and the radiochemical integrity was subsequently evaluated using a well-type NaI(Tl) ([Al Oraini, 2018]) detector linked to a single-channel analyzer.

In the case of `COc1ccccc1OCC[N]1CC(COc2cccc3[nH]c4ccccc4c23)[O][99Tc]12(=[O])[O]C(COc1cccc3[nH]c4ccccc4c13)C[N]2CCOc1ccccc1OC` (racemic) [[^99mTc]Tc-carvedilol], the “[^99mTc]Tc-carvedilol percentages of injected dose per Gram organ” value ([1]; Kidneys, 60 min post-injection) is reported as 24.392 ± 0.345 % ID/g organ, the “[^99mTc]Tc-carvedilol percentages of injected dose per Gram organ” value ([1]; Kidneys, 120 min post-injection) is reported as 29.284 ± 0.012 % ID/g organ and the “Residual [^99mTc]Tc-carvedilol percentages of injected dose per Gram in non-targeted organs” value ([1]; Liver row, 15 min post-injection) is reported as 92.740 ± 0.03 % ID/g. For the same compound, the “Residual [^99mTc]Tc-carvedilol percentages of injected dose per Gram in non-targeted organs” value ([1]; Liver row, 30 min post-injection) was 95.149 ± 0.01 % ID/g, the “Residual [^99mTc]Tc-carvedilol percentages of injected dose per Gram in non-targeted organs” value ([1]; Liver row, 120 min post-injection) was 93.895 ± 0.04 % ID/g and the “[^99mTc]Tc-carvedilol percentages of injected dose per Gram organ” value ([1]; Liver, 15 min post-injection) was 7.255 ± 0.023 % ID/g organ. For the same compound, the “[^99mTc]Tc-carvedilol percentages of injected dose per Gram organ” value ([1]; Liver, 30 min post-injection) was 4.841 ± 0.568 % ID/g organ, the “[^99mTc]Tc-carvedilol percentages of injected dose per Gram organ” value ([1]; Liver, 120 min post-injection) was 6.045 ± 1.020 % ID/g organ and the “Residual [^99mTc]Tc-carvedilol percentages of injected dose per Gram in non-targeted organs” value ([1]; Lung row, 15 min post-injection) was 98.710 ± 0.01 % ID/g. The “Residual [^99mTc]Tc-carvedilol percentages of injected dose per Gram in non-targeted organs” value ([1]; Lung row, 30 min post-injection) was 92.205 ± 0.01 % ID/g, the “Residual [^99mTc]Tc-carvedilol percentages of injected dose per Gram in non-targeted organs” value ([1]; Lung row, 60 min post-injection) was 95.410 ± 0.00 % ID/g and the “Residual [^99mTc]Tc-carvedilol percentages of injected dose per Gram in non-targeted organs” value ([1]; Lung row, 120 min post-injection) was 95.371 ± 0.04 % ID/g. The “[^99mTc]Tc-carvedilol percentages of injected dose per Gram organ” value ([1]; Lung, 15 min post-injection) was 1.290 ± 0.232 % ID/g organ, the “[^99mTc]Tc-carvedilol percentages of injected dose per Gram organ” value ([1]; Lung, 30 min post-injection) was 7.795 ± 0.060 % ID/g organ and the “[^99mTc]Tc-carvedilol percentages of injected dose per Gram organ” value ([1]; Lung, 60 min post-injection) was 4.590 ± 0.000 % ID/g organ. For the same compound, the “[^99mTc]Tc-carvedilol percentages of injected dose per Gram organ” value ([1]; Lung, 120 min post-injection) was 4.579 ± 0.111 % ID/g organ, the “Residual [^99mTc]Tc-carvedilol percentages of injected dose per Gram in non-targeted organs” value ([1]; Muscle row, 15 min post-injection) was 99.309 ± 0.02 % ID/g and the “Residual [^99mTc]Tc-carvedilol percentages of injected dose per Gram in non-targeted organs” value ([1]; Muscle row, 30 min post-injection) was 99.727 ± 0.01 % ID/g. For the same compound, the “Residual [^99mTc]Tc-carvedilol percentages of injected dose per Gram in non-targeted organs” value ([1]; Muscle row, 60 min post-injection) was 99.321 ± 0.02 % ID/g, the “Residual [^99mTc]Tc-carvedilol percentages of injected dose per Gram in non-targeted organs” value ([1]; Muscle row, 120 min post-injection) was 98.449 ± 0.03 % ID/g and the “[^99mTc]Tc-carvedilol percentages of injected dose per Gram organ” value ([1]; Muscle, 15 min post-injection) was 0.671 ± 0.195 % ID/g organ. The “[^99mTc]Tc-carvedilol percentages of injected dose per Gram organ” value ([1]; Muscle, 30 min post-injection) was 0.263 ± 0.215 % ID/g organ, the “[^99mTc]Tc-carvedilol percentages of injected dose per Gram organ” value ([1]; Muscle, 60 min post-injection) was 0.659 ± 0.217 % ID/g organ and the “[^99mTc]Tc-carvedilol percentages of injected dose per Gram organ” value ([1]; Muscle, 120 min post-injection) was 1.521 ± 0.201 % ID/g organ. For the same compound, the “Residual [^99mTc]Tc-carvedilol percentages of injected dose per Gram in non-targeted organs” value ([1]; Spleen row, 15 min post-injection) was 98.118 ± 0.02 % ID/g, the “Residual [^99mTc]Tc-carvedilol percentages of injected dose per Gram in non-targeted organs” value ([1]; Spleen row, 30 min post-injection) was 95.816 ± 0.01 % ID/g and the “Residual [^99mTc]Tc-carvedilol percentages of injected dose per Gram in non-targeted organs” value ([1]; Spleen row, 60 min post-injection) was 93.319 ± 0.05 % ID/g. The “Residual [^99mTc]Tc-carvedilol percentages of injected dose per Gram in non-targeted organs” value ([1]; Spleen row, 120 min post-injection) was 97.701 ± 0.02 % ID/g, the “[^99mTc]Tc-carvedilol percentages of injected dose per Gram organ” value ([1]; Spleen, 15 min post-injection) was 1.852 ± 0.151 % ID/g organ and the “[^99mTc]Tc-carvedilol percentages of injected dose per Gram organ” value ([1]; Spleen, 30 min post-injection) was 4.174 ± 0.019 % ID/g organ. The “[^99mTc]Tc-carvedilol percentages of injected dose per Gram organ” value ([1]; Spleen, 60 min post-injection) was 6.631 ± 0.019 % ID/g organ, the “[^99mTc]Tc-carvedilol percentages of injected dose per Gram organ” value ([1]; Spleen, 120 min post-injection) was 2.279 ± 0.126 % ID/g organ and the “Residual [^99mTc]Tc-carvedilol percentages of injected dose per Gram in non-targeted organs” value ([1]; Stomach row, 15 min post-injection) was 98.807 ± 0.01 % ID/g. For the same compound, the “Residual [^99mTc]Tc-carvedilol percentages of injected dose per Gram in non-targeted organs” value ([1]; Stomach row, 30 min post-injection) was 98.433 ± 0.04 % ID/g, the “Residual [^99mTc]Tc-carvedilol percentages of injected dose per Gram in non-targeted organs” value ([1]; Stomach row, 60 min post-injection) was 95.706 ± 0.03 % ID/g and the “Residual [^99mTc]Tc-carvedilol percentages of injected dose per Gram in non-targeted organs” value ([1]; Stomach row, 120 min post-injection) was 97.717 ± 0.06 % ID/g. For the same compound, the “[^99mTc]Tc-carvedilol percentages of injected dose per Gram organ” value ([1]; Stomach, 15 min post-injection) was 1.193 ± 0.201 % ID/g organ, the “[^99mTc]Tc-carvedilol percentages of injected dose per Gram organ” value ([1]; Stomach, 30 min post-injection) was 1.524 ± 0.259 % ID/g organ and the “[^99mTc]Tc-carvedilol percentages of injected dose per Gram organ” value ([1]; Stomach, 60 min post-injection) was 4.263 ± 0.259 % ID/g organ. For the same compound, the “[^99mTc]Tc-carvedilol percentages of injected dose per Gram organ” value ([1]; Stomach, 120 min post-injection) was 2.239 ± 0.065 % ID/g organ and the serum stability [2] was greater than 92%.
